Test results: ChEMBL document CHEMBL3390847, “Boronic acids in medicinal chemistry: anticancer, antibacterial and antiviral applications” (Medchemcomm, 2010)
Converted amounts (≈) assume the structure as drawn.

Legend:
[1] = Inhibition of alpha-chymotrypsin (unknown origin); design: species or system Homo sapiens
B16 = assay: Cytotoxicity against mouse B16 cells; format: functional, cell-based
Tubulin [2] = assay: Inhibition of tubulin polymerization (unknown origin) after 30 mins; format: protein-complex assay, Homo sapiens
[3] = Cytotoxicity against human 1-87 cells; format: functional, cell-based
[4] = Inhibition of AmpC beta-lactamase (unknown origin)
[5] = Inhibition of TEM-30 (unknown origin)
[6] = Inhibition of AmpC beta-lactamase N289A mutant (unknown origin)
[7] = Inhibition of TEM-1 (unknown origin)
Staphylococcus aureus = assay: Antimicrobial activity against Staphylococcus aureus […] after 18 hrs by broth macrodilution assay; format: functional
Bacillus subtilis = assay: Antimicrobial activity against Bacillus subtilis ATCC 23857 after 18 hrs by broth macrodilution assay; format: functional; details: ATCC 23857, 18 h
Moraxella catarrhalis = assay: Antimicrobial activity against Moraxella catarrhalis after 18 hrs by broth macrodilution assay; format: functional
[8] = tested on: Staphylococcus epidermidis; assay: Antimicrobial activity against Staphylococcus epidermidis ATCC 12228 after 18 hrs by broth macrodilution assay; format: functional; details: ATCC 12228, 18 h
[9] = Inhibition of beta-lactamase SHV2 G238S mutant (unknown origin) expressed in Escherichia coli DH10B using nitrocefin as substrate
[10] = Inhibition of beta-lactamase SHV2 D104K mutant (unknown origin) expressed in Escherichia coli DH10B using nitrocefin as substrate
A-431 = assay: Cytotoxicity against human A431 cells; format: functional
[11] = target: T1, Epidermal growth factor receptor (Homo sapiens, UniProt P00533); assay: Inhibition of EGFR kinase (unknown origin) using poly(Glu:Tyr) as substrate at 1 uM
T1 sequence (P00533 whole entry): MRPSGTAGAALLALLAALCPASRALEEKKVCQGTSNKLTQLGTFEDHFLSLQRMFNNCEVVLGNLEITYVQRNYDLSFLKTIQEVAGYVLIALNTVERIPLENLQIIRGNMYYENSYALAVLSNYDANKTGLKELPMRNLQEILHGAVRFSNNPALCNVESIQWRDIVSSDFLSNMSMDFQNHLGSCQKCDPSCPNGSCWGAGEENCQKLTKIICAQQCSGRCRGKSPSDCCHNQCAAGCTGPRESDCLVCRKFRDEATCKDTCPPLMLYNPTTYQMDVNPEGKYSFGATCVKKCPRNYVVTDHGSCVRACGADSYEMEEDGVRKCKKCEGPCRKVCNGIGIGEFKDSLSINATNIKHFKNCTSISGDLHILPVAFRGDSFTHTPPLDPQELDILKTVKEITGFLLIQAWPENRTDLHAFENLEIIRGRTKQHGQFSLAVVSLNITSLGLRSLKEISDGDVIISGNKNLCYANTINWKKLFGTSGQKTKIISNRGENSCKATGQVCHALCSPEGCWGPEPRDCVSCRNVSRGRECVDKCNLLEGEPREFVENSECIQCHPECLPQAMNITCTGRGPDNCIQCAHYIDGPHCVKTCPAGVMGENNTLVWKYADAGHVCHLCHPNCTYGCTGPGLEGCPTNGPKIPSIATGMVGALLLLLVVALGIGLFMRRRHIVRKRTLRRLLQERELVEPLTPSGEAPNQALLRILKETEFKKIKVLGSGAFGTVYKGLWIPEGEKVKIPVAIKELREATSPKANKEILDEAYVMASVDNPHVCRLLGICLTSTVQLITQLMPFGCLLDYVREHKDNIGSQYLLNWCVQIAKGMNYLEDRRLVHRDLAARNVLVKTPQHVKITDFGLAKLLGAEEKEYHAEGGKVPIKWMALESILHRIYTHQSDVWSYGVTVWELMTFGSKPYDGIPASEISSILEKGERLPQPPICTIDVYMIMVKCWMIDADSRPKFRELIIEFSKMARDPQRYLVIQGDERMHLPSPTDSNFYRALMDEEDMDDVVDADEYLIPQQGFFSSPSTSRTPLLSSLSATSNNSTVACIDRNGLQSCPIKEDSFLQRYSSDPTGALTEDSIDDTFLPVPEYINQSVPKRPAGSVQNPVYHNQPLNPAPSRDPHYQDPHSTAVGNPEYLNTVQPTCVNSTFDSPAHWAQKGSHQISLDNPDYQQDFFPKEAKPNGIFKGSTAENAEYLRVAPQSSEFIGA

[12] = target: T1, Epidermal growth factor receptor; assay: Inhibition of EGFR kinase (unknown origin) using poly(Glu:Tyr) as substrate
[13] = Inhibition of post-glutamyl peptide hydrolysis proteasome subunit (unknown origin); design: species or system Homo sapiens
[14] = target: T2, Proteasome subunit beta type-7 (Homo sapiens, UniProt Q99436); assay: Inhibition of trypsin-like activity of proteasome beta7 subunit (unknown origin)
T2 sequence (Q99436 whole entry): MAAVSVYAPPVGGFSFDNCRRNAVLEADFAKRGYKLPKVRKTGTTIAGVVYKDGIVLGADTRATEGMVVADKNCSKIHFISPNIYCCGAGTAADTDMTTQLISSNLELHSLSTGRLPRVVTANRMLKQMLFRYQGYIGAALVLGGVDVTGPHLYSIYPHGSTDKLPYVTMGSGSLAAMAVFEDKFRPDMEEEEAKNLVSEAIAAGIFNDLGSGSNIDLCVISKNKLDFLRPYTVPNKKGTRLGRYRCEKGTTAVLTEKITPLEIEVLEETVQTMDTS

[15] = target: T3, Proteasome Macropain subunit MB1 (Homo sapiens, UniProt P28074); assay: Inhibition of chymotrypsin-like activity of proteasome beta5 subunit (unknown origin)
T3 sequence (P28074 whole entry): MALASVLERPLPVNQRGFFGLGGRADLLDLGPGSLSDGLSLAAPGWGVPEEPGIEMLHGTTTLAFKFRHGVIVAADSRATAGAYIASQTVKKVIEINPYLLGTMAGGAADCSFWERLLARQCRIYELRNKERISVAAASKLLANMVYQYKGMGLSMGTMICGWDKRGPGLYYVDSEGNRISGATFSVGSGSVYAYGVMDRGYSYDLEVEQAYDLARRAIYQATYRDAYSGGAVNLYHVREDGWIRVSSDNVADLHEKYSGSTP

[16] = Inhibition of tubulin polymerization in rat A10 cells assessed as microtubule loss; format: cell-based
MCF7 = assay: Cytotoxicity against human MCF7 cells; format: functional, cell-based
Tubulin [17] = assay: Inhibition of tubulin polymerization (unknown origin); format: protein-complex assay, Homo sapiens
[18] = Inhibition of YFV recombinant NS3 protease expressed in Escherichia coli using Bz-nKRR-AMC as substrate after 30 mins; design: species or system Yellow fever virus
Tubulin (Homo sapiens) = Tubulin (Homo sapiens) (UniProt P68371+Q9H4B7+P0DPH7+P68366+Q13509+Q71U36+P04350+Q3ZCM7+P07437+P68363+Q9BQE3+Q6PEY2+Q13885+Q9BVA1+Q9BUF5); assay: Displacement of [3H]colchicine from tubulin (unknown origin) at 5 uM; format: protein-complex assay
Bacillus anthracis = assay: Antimicrobial activity against Bacillus anthracis; format: functional

SMILES: OB(O)c1ccccc1 [PHENYLBORONIC ACID]
- Ki [1]: 196 µM

SMILES: COc1cc(/C=C\c2cccc(B(O)O)c2)cc(OC)c1
- IC50 (B16): 1.8 µM
- IC50 (Tubulin [2]): > 100 µM
- IC50 [3]: 2 µM

SMILES: O=C(Cc1cccs1)N[C@H](B(O)O)c1cccc(C(=O)O)c1
- Ki [4]: 0.001 µM
- Ki [5]: 7.8 µM
- Ki [6]: 0.017 µM
- Ki [7]: 0.064 µM

SMILES: Clc1cccc(B(Oc2ccc(Cl)c3cccnc23)c2cccc(Cl)c2)c1
- MIC (Staphylococcus aureus): 0.5 µg/mL (≈ 1.21 µM)
- MIC (Bacillus subtilis): 32 µg/mL (≈ 77.6 µM)
- MIC (Moraxella catarrhalis): ≤ 0.125 µg/mL
- MIC [8]: 0.25 µg/mL (≈ 0.606 µM)

SMILES: CO/N=C(/C(=O)NCB(O)O)c1csc(N)n1
- Ki [9]: 6.8 µM
- Ki [10]: 0.7 µM

SMILES: OB(O)/C=C/COc1ccc2ncnc(Nc3cccc(Cl)c3)c2c1
- GI50 (A-431): 0.68 µM
- inhibition [11]: 63%
- IC50 [12]: 0.27 µM

SMILES: O=C(Cc1cccs1)N[C@H](B(O)O)c1ccccc1
- Ki [4]: 0.035 µM

SMILES: OCc1ccccc1 [BENZYL ALCOHOL]
- Ki [1]: 10000 µM

SMILES: CC(C)C[C@H](NC(=O)[C@H](Cc1ccc(O)cc1)NC(=O)[C@H](Cc1ccccc1)NC(=O)c1cnccn1)B(O)O
- IC50 [13]: 0.00401 µM
- IC50 [14]: > 0.02 µM
- IC50 [15]: 390 pM

SMILES: COc1cc(C(=O)/C=C/c2cc(OC)c(OC)c(OC)c2)ccc1B(O)O
- EC50 [16]: > 15 µM
- IC50 (MCF7): > 2.5 µM
- IC50 (Tubulin [17]): > 40 µM

SMILES: C=CB(Oc1cccc2cccnc12)c1cccc(Cl)c1
- MIC (Staphylococcus aureus): 2 µg/mL (≈ 6.81 µM)
- MIC (Bacillus subtilis): 4 µg/mL (≈ 13.6 µM)
- MIC (Moraxella catarrhalis): 4 µg/mL (≈ 13.6 µM)
- MIC [8]: 1 µg/mL (≈ 3.41 µM)

SMILES: CC(C)C[C@H](NC(=O)[C@H](Cc1ccc2ccccc2c1)NC(=O)[C@H](CC(C)C)NC(=O)c1cnccn1)B1O[C@@H]2[C@H]3CC[C@H](C3(C)C)[C@]2(C)O1
- IC50 [13]: 0.00391 µM
- IC50 [14]: > 0.02 µM
- IC50 [15]: 380 pM

SMILES: COc1cc(/C=C/C(=O)c2cc(OC)c(OC)c(OC)c2)ccc1B(O)O
- EC50 [16]: 16.5 µM
- IC50 (MCF7): 0.9 µM
- IC50 (Tubulin [17]): 31 µM

SMILES: COc1cc(/C=C\c2ccc(B(O)O)cc2)cc(OC)c1
- IC50 (B16): 12 µM
- IC50 (Tubulin [2]): 79 µM
- IC50 [3]: 9.1 µM

SMILES: COc1cc(C(=O)/C=C/c2cc(OC)c(OC)c(OC)c2)ccc1O
- EC50 [16]: 18 µM
- IC50 (MCF7): > 2.5 µM
- IC50 (Tubulin [17]): > 40 µM

SMILES: COc1ccc(/C=C\c2cc(OC)c(OC)c(OC)c2)cc1C(=O)O
- IC50 (B16): 160 µM
- IC50 (Tubulin [2]): > 100 µM
- IC50 [3]: 110 µM

SMILES: CC(C)C[C@H](NC(=O)[C@H](Cc1ccccc1)NC(=O)[C@H](Cc1ccccc1)NC(=O)c1cnccn1)B1O[C@@H]2[C@H]3CC[C@H](C3(C)C)[C@]2(C)O1
- IC50 [13]: 0.00833 µM
- IC50 [14]: > 0.02 µM
- IC50 [15]: 400 pM

SMILES: CC1(C)[C@H]2CC3OB(COc4ccc5ncnc(Nc6cccc(Cl)c6)c5c4)O[C@@]3(C)[C@@H]1C2 (some centres not stated)
- GI50 (A-431): 0.54 µM
- inhibition [11]: 65%
- IC50 [12]: 0.2 µM

SMILES: CC(=O)OCC1=C(C(=O)O)N2C(=O)[C@@H](NC(=O)Cc3cccs3)[C@H]2SC1 [CEPHALOTHIN]
- Ki [4]: 0.32 µM

SMILES: OB(O)c1ccc(COc2ccc3ncnc(Nc4cccc(Cl)c4)c3c2)cc1
- GI50 (A-431): 1.82 µM
- inhibition [11]: 55%
- IC50 [12]: 0.85 µM

SMILES: COc1ccc(/C=C\c2cc(OC)c(OC)c(OC)c2)cc1O [COMBRETASTATIN A4]
- IC50 (B16): 0.0046 µM
- EC50 [16]: < 0.025 µM
- IC50 [3]: 0.0085 µM
- IC50 (MCF7): 0.032 µM

SMILES: CCCC[C@H](NC(=O)c1ccccc1)C(=O)N[C@@H](CCCCN)C(=O)N[C@@H](CCCCN)C(=O)N[C@@H](CCCNC(=N)N)B(O)O
- Ki [18]: 0.05 µM

SMILES: Clc1ccc(C(Oc2cccc3cccnc23)c2ccc(Cl)cc2)cc1
- MIC (Staphylococcus aureus): > 64 µg/mL
- MIC (Bacillus subtilis): > 64 µg/mL
- MIC [8]: > 64 µg/mL

SMILES: COc1ccc(/C=C/c2cc(OC)c(OC)c(OC)c2)cc1B(O)O
- EC50 [16]: > 15 µM
- IC50 (MCF7): 0.47 µM
- IC50 (Tubulin [17]): 7.8 µM

SMILES: CC(C)C[C@H](NC(=O)[C@H](Cc1ccccc1)NC(=O)[C@H](Cc1ccc2ccccc2c1)NC(=O)c1cnccn1)B1O[C@@H]2[C@H]3CC[C@H](C3(C)C)[C@]2(C)O1
- IC50 [13]: > 0.02 µM
- IC50 [14]: > 0.02 µM
- IC50 [15]: 220 pM

SMILES: COc1cc(/C=C\c2ccc(B(O)O)cc2)cc(OC)c1OC
- IC50 (B16): 2.6 µM
- IC50 (Tubulin [2]): > 100 µM
- IC50 [3]: 3.2 µM

SMILES: CC(C)C[C@H](NC(=O)[C@H](Cc1ccc(O)cc1)NC(=O)[C@H](Cc1ccccc1)NC(=O)c1cnccn1)B1O[C@@H]2[C@H]3CC[C@H](C3(C)C)[C@]2(C)O1
- IC50 [13]: 0.00539 µM
- IC50 [14]: > 0.02 µM
- IC50 [15]: 340 pM

SMILES: Clc1cccc(B(Oc2cccc3cccnc23)c2cccc(Cl)c2)c1
- MIC (Staphylococcus aureus): 1 µg/mL (≈ 2.65 µM)
- MIC (Bacillus subtilis): 2 µg/mL (≈ 5.29 µM)
- MIC (Moraxella catarrhalis): 2 µg/mL (≈ 5.29 µM)
- MIC [8]: 2 µg/mL (≈ 5.29 µM)

SMILES: CC(C)C[C@H](NC(=O)[C@H](Cc1ccccc1)NC(=O)[C@H](Cc1ccccc1)NC(=O)c1cnccn1)B(O)O
- IC50 [13]: 0.0109 µM
- IC50 [14]: > 0.02 µM
- IC50 [15]: 550 pM

SMILES: O=C(O)/C=C/c1cccc([C@H](NC(=O)Cc2cccs2)B(O)O)c1
- Ki [5]: 3.8 µM
- Ki [6]: 0.0028 µM
- Ki [7]: 0.106 µM

SMILES: Cc1ccc2cccc(OB(c3ccc(Cl)cc3)c3ccc(Cl)cc3)c2n1
- MIC (Staphylococcus aureus): 16 µg/mL (≈ 40.8 µM)
- MIC [8]: 8 µg/mL (≈ 20.4 µM)

SMILES: COc1cc(/C=C\c2cccc(B(O)O)c2)cc(OC)c1OC
- IC50 (B16): 0.49 µM
- IC50 (Tubulin [2]): > 100 µM
- IC50 [3]: 2.1 µM

SMILES: COc1ccc(/C=C\c2cc(OC)c(OC)c(OC)c2)cc1B(O)O
- IC50 (B16): 0.0063 µM
- EC50 [16]: 0.058 µM
- IC50 (Tubulin [2]): 22 µM
- IC50 [3]: 0.013 µM
- inhibition (Tubulin (Homo sapiens)): 79%
- IC50 (MCF7): 0.017 µM
- IC50 (Tubulin [17]): 1.5 µM

SMILES: COc1cc(/C=C\c2ccc(OC)c(B(O)O)c2)cc(OC)c1
- IC50 (B16): 0.019 µM
- IC50 (Tubulin [2]): 21 µM
- IC50 [3]: 0.028 µM

SMILES: CC(C)C[C@H](NC(=O)[C@H](Cc1ccc2ccccc2c1)NC(=O)[C@H](CC(C)C)NC(=O)c1cnccn1)B(O)O
- IC50 [13]: 0.00363 µM
- IC50 [14]: > 0.02 µM
- IC50 [15]: 80 pM

SMILES: CC(C)C[C@H](NC(=O)[C@H](Cc1ccccc1)NC(=O)[C@H](Cc1ccc2ccccc2c1)NC(=O)c1cnccn1)B(O)O
- IC50 [13]: 0.00443 µM
- IC50 [14]: > 0.02 µM
- IC50 [15]: 420 pM

SMILES: COc1cc(/C=C/C(=O)c2cc(OC)c(OC)c(OC)c2)ccc1O
- EC50 [16]: 0.98 µM
- IC50 (MCF7): 0.11 µM
- IC50 (Tubulin [17]): 2.6 µM

SMILES: C=CB(Oc1cccc2cccnc12)c1ccccc1
- MIC (Staphylococcus aureus): 2 µg/mL (≈ 7.72 µM)
- MIC (Moraxella catarrhalis): 2 µg/mL (≈ 7.72 µM)
- MIC [8]: 1 µg/mL (≈ 3.86 µM)

SMILES: CC[C@H]1OC(=O)[C@H](C)[C@@H](O[C@H]2C[C@@](C)(OC)[C@@H](O)[C@H](C)O2)[C@H](C)[C@@H](O[C@@H]2O[C@H](C)C[C@H](N(C)C)[C@H]2O)[C@](C)(O)C[C@@H](C)C(=O)[C@H](C)[C@@H](O)[C@]1(C)O [ERYTHROMYCIN]
- MIC90 (Bacillus anthracis): 1.5 µg/mL (≈ 2.04 µM)
